Assay [1] concerns the target T1, SARM1 protein in iSARM1 (HEK293) cells (Homo sapiens, UniProt Q6SZW1).
T1 construct: The full-length SARM1 was synthesized into the pUC57 plasmid by WZ Biosciences Inc., and PCR was performed using pUC57-SARM1 as a DNA template
T1 sequence (Q6SZW1 28-724): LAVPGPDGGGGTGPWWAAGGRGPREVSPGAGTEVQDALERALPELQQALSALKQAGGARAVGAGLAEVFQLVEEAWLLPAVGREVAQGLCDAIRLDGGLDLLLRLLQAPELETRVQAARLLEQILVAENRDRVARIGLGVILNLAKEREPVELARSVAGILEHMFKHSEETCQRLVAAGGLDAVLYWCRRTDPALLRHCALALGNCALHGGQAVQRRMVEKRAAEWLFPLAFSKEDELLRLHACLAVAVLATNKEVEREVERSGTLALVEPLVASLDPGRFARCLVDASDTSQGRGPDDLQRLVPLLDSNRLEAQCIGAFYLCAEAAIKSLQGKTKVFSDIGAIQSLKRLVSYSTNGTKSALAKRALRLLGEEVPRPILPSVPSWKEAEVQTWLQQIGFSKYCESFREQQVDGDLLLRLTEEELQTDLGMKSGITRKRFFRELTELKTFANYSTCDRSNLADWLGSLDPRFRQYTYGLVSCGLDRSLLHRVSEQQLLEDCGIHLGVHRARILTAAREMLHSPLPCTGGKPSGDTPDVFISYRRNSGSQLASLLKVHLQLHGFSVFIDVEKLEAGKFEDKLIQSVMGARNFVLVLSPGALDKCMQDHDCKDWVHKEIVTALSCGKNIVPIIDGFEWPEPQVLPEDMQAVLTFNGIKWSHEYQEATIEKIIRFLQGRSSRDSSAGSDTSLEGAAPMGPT
As to the kind of experiment: Inhibitory activity in inducible SARM1 overexpressing cell line, intracellular cADPR level. In kind it is cell-based. Conditions: activator CZ-48 100 μM, cADPR content. As for the experimental part: In this example, the gene sequence of SARM1 was amplified using PCR, and constructed into pInducer20-neo plasmid. pInducer20-SARM1 virus was packaged in a liposome and infected HEK293 to obtain an inducible SARM1-overexpressing cell line, which was labeled as iSARM1 (HEK293). The specific preparation was as follows:
First, a 96-well culture plate was treated with 0.05 mg/ml polylysine for 5 minutes and washed once with PBS. 3×10^4 iSARM1 (HEK293) cells were plated into the 96-well plate and cultured overnight in a 37° C. and 5% incubator. The next day, the cells were added with an inhibitor with a final concentration of 50 μM, incubated in the incubator for 1.5 hours, added with activator CZ-48 with a final concentration of 100 μM, and incubated for 16 hours. Meanwhile, the cells without adding CZ-48 or without adding drug were set as control group. Finally, the intracellular cADPR level was detected to represent the activity of SARM1, and the inhibition rate of SARM1 in cells by 50 μM inhibitor was calculated.
The cADPR measurement was performed as follows. First, the cells were washed once with PBS, and added with 150 μl of pre-cooled 0.6M perchloric acid (PCA) to quickly lyse the cells and precipitate the protein. The PCA supernatant was transferred to a 1.5 ml centrifuge tube. The protein in the culture medium was dissolved again with 100 μl of 1M NaOH. The supernatant was added with 0.5 ml of organic reagent mixture (trioctylamine:chloroform=1:3) to extract PCA from water. After sufficient shaking, the mixture was centrifuged at 12,000 rpm for 10 minutes. The solution was divided into 3 layers: the upper aqueous phase, containing the small molecules of interest; the lower organic phase, in which PCA was dissolved; and a thin protein layer between the upper and lower layers. The upper layer was transferred to a new centrifuge tube, added with 1M Tris-Mg at a ratio of 1:100 (1M Tris (pH 8.0): 1M MgCl2=9:1), added with NADase at a ratio of 1:250, and treated at 37° C. overnight to remove NAD^+ from the mixed solution. After the treatment was completed, the mixed solution was filtered using Millipore's 10 K 96-well filter plate to remove NADase.
The cADPR content in the solution was determined through Cycling analysis method. The specific steps were as follows: 20 μl of the sample to be tested or the cADPR standard was taken and added to a 96-well opaque white plate. Preparation of reaction solution: 9.6 ml of PBS (pH 7.4), 200 μl of ethanol, 150 μl of 1 mg/ml AD, 10 μl of 10 mM FMN, 5 μl of 18 mg/ml Diaphorase, 10 μl of 10 mM Resazurin, and 100 μl of 1M Nam. Half of the reaction solution was divided and added with 0.2 μg/ml cyclase. The reaction solution without adding cyclase was used as control experiment. Each sample was divided into two groups, 3 replicates in each group. The reaction solutions containing or not containing cyclase were added to each group to perform the reaction. The reaction kinetic curve within 30 minutes was recorded (Ex:Em=544/599). The average slope of the reaction was calculated. Conversion was performed according to cADPR standard to obtain the accurate cADPR content. A curve of intracellular cADPR content vs corresponding inhibitor concentration was plotted. The half inhibitory concentration of the inhibitor was calculated.

The target in another assay is T2, dN-SARM1 protein (Homo sapiens, UniProt Q6SZW1).
T2 construct: the N-terminal mitochondrial localization signal peptide of SARM1 was removed
T2 sequence (Q6SZW1 28-724): T1 sequence (Q6SZW1 28-724)
As to the kind of experiment: In vitro biochemical assay for inhibiting SARM1 enzymatic activity (IC50), PC6 fluorescence method. Conditions: 50 μM NAD, 50 μM PC6, 50 μM NMN activator. As for the experimental part: 200 μM compound was first added to a solution of 0.05 μg/ml dN-SARM1 in 50 mM Tris-HCl (pH 7.5). Half of the mixture was added to an equal volume of a solution of 0.05 μg/ml dN-SARM1 in 50 mM Tris-HCl (pH 7.5) and mixed. The drug was diluted 6 times in this manner, with the final concentrations being 200, 100, 50, 25, 12.5, 6.25, 3.125 μM, or 200, 50, 12.5, 3.125, 0.78, 0.195, 0.049 μM, respectively. The protein without inhibitors added, being used as control group, was incubated at room temperature for 10 minutes.
50 μM NAD, 50 μM PC6 as substrate and 50 μM NMN as activator were added to the dN-SARM1 protein incubated with the inhibitor and reacted for 30 minutes at room temperature. The concentration of each component was the final concentration in the reaction system.
During the reaction, PC6 fluorescence spectrum dynamics were detected by a microplate reader, wherein the excitation wavelength and emission wavelength for detection were 390 nm and 520 nm, respectively. Finally, the reaction rate was used to express the activity of the protein, and the half inhibitory concentration was calculated. The higher the reaction rate, the stronger the protein activity, and the lower the inhibitory efficiency of the compound.
The dose curve of compounds inhibiting SARM1 enzymatic activity was determined using the above method.

Counter-ions that a name gives are not always drawn. Bounds are passed on as bounds.

For the compound `CN(C(=O)OC(C)(C)C)c1ccc2ncc(-c3cccc(N)c3)n2c1` [Compound 2], the EC50 (usually the concentration needed to bring the measured effect to its halfway point) in assay [1] was 1 to 10 µM. Moreover, the IC50 (in general, the concentration at which inhibition is half-maximal) at dN-SARM1 protein is below 1 µM.
On to `CN(C(=O)OC(C)(C)C)c1ccc2ncc(-c3ccc(S(N)(=O)=O)cc3)n2c1` [Compound 6], for which the EC50 in assay [1] is below 1 µM. On dN-SARM1 protein, the IC50 was in the range of 1 to 10 µM.
The like results for `CN(C(=O)OC(C)(C)C)c1ccc2ncc(-c3cccc(C(N)=O)c3)n2c1` [Compound 7] were, in that order, 1 to 10 µM and 1 to 10 µM.
`CN(C(=O)OC(C)(C)C)c1ccc2ncc(-c3ccccc3)n2c1` [Compound 8] had an EC50 in assay [1] of 1 to 10 µM. Moreover, on dN-SARM1 protein, the IC50 lay within 1 to 10 µM.
Take `NS(=O)(=O)c1cccc(-c2cnc3ccccn23)c1` [Compound 9]: in assay [1], the EC50 lay within 1 to 10 µM. On dN-SARM1 protein, this compound had an IC50 of 1 to 10 µM.
The compound `Cc1ccccc1-c1cnc2ccc(N(C)C(=O)OC(C)(C)C)cn12` [Compound 10] returned an EC50 in assay [1] below 1 µM. For the same compound, the IC50 against dN-SARM1 protein lay in the range of 1 to 10 µM.
The like results for `CN(C(=O)OC(C)(C)C)c1ccc2ncc(-c3ccccc3Cl)n2c1` [Compound 11] were, in that order, below 1 µM and 1 to 10 µM.
On to `CN(C(=O)OC(C)(C)C)c1ccc2ncc(-c3cccs3)n2c1` [Compound 12], for which the EC50 in assay [1] is below 1 µM. The compound also came in with an IC50 against dN-SARM1 protein of 1 to 10 µM.
The like results for `COc1cccc(-c2cnc3ccc(N(C)C(=O)OC(C)(C)C)cn23)c1` [Compound 13] were, in that order, 1 to 10 µM and below 1 µM.
The like results for `COc1ccc(-c2cnc3ccc(N(C)C(=O)OC(C)(C)C)cn23)cc1` [Compound 14] were, in that order, 1 to 10 µM and 1 to 10 µM.
Compound `CN(C(=O)OC(C)(C)C)c1ccc2ncc(-c3cccnc3)n2c1` [Compound 15] showed an EC50 in assay [1] of 1 to 10 µM. Moreover, at dN-SARM1 protein, the 50% inhibitory concentration (IC50) lay in the range of 1 to 10 µM.
Regarding `CN(C(=O)OC(C)(C)C)c1ccc2ncc(-c3ccncc3)n2c1` [Compound 17], the EC50 in assay [1] is 1 to 10 µM. Also, on dN-SARM1 protein, the IC50 is 1 to 10 µM.
Compound `COCCOCC(=O)Nc1cccc(-c2cnc3ccc(N(C)C(=O)OC(C)(C)C)cn23)c1` [Compound 47, tert-butyl (3-(3-(2-(2-methoxyethoxy)acetamido)phenyl)imidazo[1,2-a]pyridin-6-yl)(methyl) carbamate] had an EC50 in assay [1] below 1 µM. Moreover, the IC50 against dN-SARM1 protein is below 1 µM.
Consider `CNc1ccc2ncc(-c3ccc(S(N)(=O)=O)cc3)n2c1` [Compound 63, 4-(6-(methylamino)imidazo[1,2-a]pyridin-3-yl)benzenesulfonamide], for which the EC50 in assay [1] was in the range of 1 to 10 µM. Also, the IC50 at dN-SARM1 protein was 1 to 10 µM.
Consider `CNc1ccc2ncc(-c3ccccc3)n2c1` [Compound 65, N-methyl-3-phenylimidazo[1,2-a]pyridin-6-amine], for which the EC50 in assay [1] lay in the range of 1 to 10 µM. For the same compound, the IC50 against dN-SARM1 protein was below 1 µM.
`CNc1ccc2ncc(-c3ccccc3Cl)n2c1` [Compound 68, 3-(2-chlorophenyl)-N-methylimidazo[1,2-a]pyridin-6-amine] yielded an EC50 in assay [1] of 1 to 10 µM. Also, at dN-SARM1 protein, the IC50 lay within 1 to 10 µM.
As to `CNc1ccc2ncc(-c3cccs3)n2c1` [Compound 69], the EC50 in assay [1] lay in the range of 1 to 10 µM. At dN-SARM1 protein, the IC50 is 1 to 10 µM.
The compound `CNc1ccc2ncc(-c3cccc(OC)c3)n2c1` [Compound 70] yielded an EC50 in assay [1] of 1 to 10 µM. This compound also yielded an IC50 on dN-SARM1 protein of 1 to 10 µM.
With `CN(C(=O)OC(C)(C)C)c1ccc2ncc(C3CCCCC3)n2c1` [Compound 84, tert-butyl (3-cyclohexylimidazo[1,2-a]pyridin-6-yl)(methyl)carbamate], the EC50 in assay [1] was below 1 µM. This compound also came in with an IC50 at dN-SARM1 protein of 1 to 10 µM.
In assay [1], `c1ccc(-c2cnc3ccc(NC4CCOC4)cn23)cc1` (centres unmarked) [Compound 87, 3-phenyl-N-(tetrahydrofuran-3-yl)imidazo[1,2-a]pyridin-6-amine] registered an EC50 of 1 to 10 µM. Moreover, the IC50 against dN-SARM1 protein is below 1 µM.
In assay [1], `CC(=O)Nc1cccc(-c2cnc3ccc(N(C)C(=O)OC(C)(C)C)cn23)c1` [Compound 96, tert-butyl (3-(3-acetylaminophenyl)imidazo[1,2-a]pyridin-6-yl)(methyl)carbamate] registered an EC50 of 1 to 10 µM. This compound came in with an IC50 against dN-SARM1 protein below 1 µM.
Taken in the same sequence, the figures for `CN(C(=O)OC(C)(C)C)c1ccc2ncc(-c3cccc(NC(=O)COCCOCCOCC(N)=O)c3)n2c1` [Compound 99, tert-butyl (3-(3-(2-(2-(2-(2-amino-2-oxoethoxy)ethoxy)ethoxy)acetamido)phenyl)imidazolin[1,2-a]pyridin-6-yl)(methyl)carbamate] were 1 to 10 µM and 1 to 10 µM.
The like results for `Cc1ncsc1-c1ccc(CNC(=O)[C@@H]2C[C@@H](O)CN2C(=O)[C@@H](NC(=O)COCCOCC(=O)Nc2cccc(-c3cnc4ccc(N(C)C(=O)OC(C)(C)C)cn34)c2)C(C)(C)C)cc1` [Compound 113] were, in that order, 1 to 10 µM and 1 to 10 µM.
Taken in the same sequence, the figures for `CNc1ccc2ncc(-c3cccc(NC(=O)COCCOCC(=O)N[C@H](C(=O)N4C[C@H](O)C[C@H]4C(=O)NCc4ccc(-c5scnc5C)cc4)C(C)(C)C)c3)n2c1` [Compound 114, (2S,4R)-1-((S)-3,3-dimethyl-2-(2-(2-(2-((3-(6-(methylamino)imidazo[1,2-a]pyridin-3-yl)phenyl)amino)-2-oxoethoxy)ethoxy)acetamido)butyryl)-4-hydroxy-N-(4-(4-methylthiazol-5-yl)benzyl)pyrrolidin-2-carboxamide hydrochloride] were 1 to 10 µM and below 1 µM.
The compound `CN(C(=O)OC(C)(C)C)c1ccc2ncc(-c3cccc(OCCOC4CCOC4)c3)n2c1` (centres unmarked) [Compound 155] gave an EC50 in assay [1] below 1 µM.
On the same count and under the same terms, to `O=C(Nc1cccc(-c2cnc3ccc(NC/C=C/c4ccccc4)cn23)c1)C1CCOCC1` [Compound 215] belongs below 1 µM.

(Values after US20240368168A1, “SARM1 ENZYME ACTIVITY INHIBITOR AND APPLICATION THEREOF” (ARTIVILA BIOPHARMA, priority 2021, published 2024).)
